Assay results: patent publication EP4471048A1, “PEPTIDE INHIBITORS OF INTERLEUKIN-23 RECEPTOR” (Zealand Pharma A/S, priority 2023, dated 2024)
*1 amine or outer side, *2 acyl side, *3 side chain or, on linkers, in order; H or OH if unused. Where a SMILES comes first, the peptide text is derived from it. Bridges are numbered along the chain shown (N, C = ends). [ ]: non-standard residue; d: D form. X8 = O=C(CC[C@@H](N[*:2])C(=O)[*:3])[*:1]; X17 = O=C(C[C@@H](CCCN[*:3])N[*:2])[*:1]; 2Nal = N[C@@H](Cc1ccc2ccccc2c1)C(=O)O; AEF = NCCOc1ccc(C[C@H](N)C(=O)O)cc1; 3Pal = N[C@@H](Cc1cccnc1)C(=O)O; β3hE = N[C@@H](CCC(=O)O)CC(=O)O; αMeL = CC(C)C[C@](C)(N)C(=O)O; dDab = NCC[C@@H](N)C(=O)O; Dab = NCC[C@H](N)C(=O)O

Molecular target: T1, human IL-23R (Homo sapiens, UniProt Q5VWK5)
T1 sequence (Q5VWK5 22-629): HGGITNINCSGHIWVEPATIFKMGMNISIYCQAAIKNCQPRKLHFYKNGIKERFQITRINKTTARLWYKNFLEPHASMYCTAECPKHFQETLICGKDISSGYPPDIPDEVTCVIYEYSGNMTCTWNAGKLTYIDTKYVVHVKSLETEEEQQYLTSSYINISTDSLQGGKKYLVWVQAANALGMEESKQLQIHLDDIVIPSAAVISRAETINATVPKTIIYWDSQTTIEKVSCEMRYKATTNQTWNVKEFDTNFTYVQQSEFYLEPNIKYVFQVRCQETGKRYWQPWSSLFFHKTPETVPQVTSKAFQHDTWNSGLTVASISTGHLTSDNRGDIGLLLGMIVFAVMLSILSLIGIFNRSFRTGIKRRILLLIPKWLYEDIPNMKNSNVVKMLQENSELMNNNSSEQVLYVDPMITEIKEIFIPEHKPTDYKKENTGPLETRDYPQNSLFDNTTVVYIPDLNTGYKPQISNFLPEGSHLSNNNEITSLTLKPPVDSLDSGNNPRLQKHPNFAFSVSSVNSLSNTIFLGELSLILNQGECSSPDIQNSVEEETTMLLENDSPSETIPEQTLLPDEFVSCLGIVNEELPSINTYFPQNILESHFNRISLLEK
Assay: biochemical
Conditions: for Emax: read-out: % displacement (hIL-23R NIuc)
Text: The compound binding affinity for IL-23R was estimated by the ability of compounds to displace a fluorophore-labelled reference compound from the human IL-23R. The assay principle relies on Bioluminescence Resonance Energy Transfer (BRET) between a fluorophore-labelled reference compound binding to the IL-23R part of a fusion protein consisting of the IL-23R fused to a Nanoluc luciferase enzyme (Nanoluc). The Nanoluc is placed in the N-terminus in close proximity to the binding domain of the ligand. Upon close proximity between the fluorophore of the fluorophore-labelled compound and the Nanoluc of the fusion protein, bioluminescence energy generated from conversion of a Nanoluc substrate, is transferred to the fluorophore resulting in an increase in BRET. In presence of an unlabelled compound, the unlabelled compound displaces the fluorophore-labelled peptide from its binding site resulting in a decrease in BRET. The concentration for which half of the fluorophore-labelled peptide is displaced by the unlabelled compound depends on the affinity of the compound for the IL-23R, and is termed the IC50 concentration.
The plasmid also contained a gene to confer resistance for the antibiotic hygromycin. A cell line stably expressing the Nluc-IL23R fusion protein was generated by transfection of HEK293 cells with the expression plasmid and selected with hygromycin for 3 weeks in Growth medium consisting of DMEM w/ Glutamax-I containing, 10% V/V FBS, 1% V/V P/S, 1 mM Sodium Pyruvate, and 1X NEAA, and 0.3 mg/mL hygromycin. The remaining cells were propagated and considered a stable expressing Nluc-IL23R fusion protein pool clone.
Cells expressing the Nluc-IL23R fusion protein were expanded in Growth medium and membranes prepared by homogenization of a cell pellet from 18 T175 flasks (4 °C in subsequent steps). The cell pellet was lysed Tris 10 mM, 7.5, 1 mM EDTA and protease inhibitors (Complete, Roche) and homogenized using a 15 mL glass-dounce by 50 strokes. The homogenate was spun at spin @1500 rpm for 10 min, the supernatant transferred to SV-34 tubes and spun at 40000g for 20 min at 4 °C to pellet the crude membranes. The supernatant was then removed, the pellet resuspended in 5 mL buffer containing 50 mM HEPES pH 7.4, 5 mM EGTA, and 5 mM MgCl2, and homogenized. Aliquots of the resuspended and homogenized membranes containing the Nluc-IL23R fusion protein were stored at -80 °C until use.
The plate was sealed with light impermeable plate seals, and incubated on an orbital shaker 400 rpm for 2 hours at room temperature. To determine the BRET ratio, the plate seal was removed and 25 µL of the Nanoluc substrate (Promega N1572) diluted 1:500 was added to each well and incubated for 1-2 minutes on an orbital shaker at 400 rpm. […] The BRET ratio was calculated as the fluorescence from the TAMRA/nanoluc bioluminescence.
Compound potency (IC50) and maximal displacement (% displacement) were estimated by computer-aided curve fitting using a 4-parameter logistic (4PL) non-linear model. […]
In this application, the inventors provide the data as IC50 values.

| IC50 | Emax | % displacement (hIL-23R NIuc) | Compound |
| --- | --- | --- | --- |
| 0.44 nM | 101% |  | CC(C)C[C@]1(C)NC(=O)[C@H](Cc2ccc3ccccc3c2)NC(=O)[C@H](Cc2ccc(OCCN)cc2)NC(=O)[C@@H]2CCC(=O)N[C@H](CCCNC(=O)CC[C@@H](C(=O)N[C@@H](CCN)C(=O)N[C@@H](Cc3cccnc3)C(N)=O)NC1=O)CC(=O)N[C@@H]([C@@H](C)O)C(=O)N[C@@H](Cc1c[nH]c3ccccc13)C(=O)N[C@@H](CCC(N)=O)C(=O)N2 [Compound 14, [{d}bLys](1c)(6c)^†TWQE(6c)[Y(2-aminoethoxy)][2-Nal][2-Me-Leu]E(1c)[Dab][3-(3-Pyridyl)-Ala]-[NH2]] (TWQE[AEF][2Nal][αMeL]E[Dab][3Pal]-NH2; linker N-4-8 via X17) |
| 26 nM | 96% |  | CNC(=O)[C@H](Cc1cccnc1)NC(=O)[C@H](CCN)NC(=O)[C@@H]1CCNC(=O)[C@H]2CCC(=O)N[C@@H](Cc3c[nH]c4ccccc34)C(=O)N[C@@H](CCC(N)=O)C(=O)N[C@@H](CCC(=O)N2)C(=O)N[C@@H](Cc2ccc(OCCN)cc2)C(=O)N[C@@H](Cc2ccc3ccccc3c2)C(=O)N[C@@](C)(CC(C)C)C(=O)N1 [Compound 109, [{d}iso-Glu](1c)^‡(6c)^†WQE(6c)[Y(2-aminoethoxy)][2-Nal][2-Me-Leu][Dab](1c)[Dab][3-(3-Pyridyl)-Ala]-[NHMe]] (WQE[AEF][2Nal][αMeL][Dab][Dab][3Pal]-NHMe; linker N-3-7 via X8) |
| 12 nM |  |  | CNC(=O)[C@H](Cc1cccnc1)NC(=O)[C@H](CCN)NC(=O)[C@@H]1CCC(=O)NCC[C@@H]2NC(=O)CC[C@H](NC(=O)[C@H](CCC(N)=O)NC(=O)[C@H](Cc3c[nH]c4ccccc34)NC(=O)CNC2=O)C(=O)N[C@@H](Cc2ccc(OCCN)cc2)C(=O)N[C@@H](Cc2ccc3ccccc3c2)C(=O)N[C@@](C)(CC(C)C)C(=O)N1 [Compound 92, [Dab](1c)(6c)^†GWQE(6c)[Y(2-aminoethoxy)][2-Nal][2-Me-Leu]E(1c)[Dab][3-(3-Pyridyl)-Ala]-[NHMe]] |
| 6.4 nM | 101% |  | CNC(=O)[C@H](Cc1cccnc1)NC(=O)[C@H](CCN)NC(=O)[C@@H]1CCC(=O)NCCC[C@@H]2NC(=O)CC[C@H](NC(=O)[C@H](CCC(N)=O)NC(=O)[C@H](Cc3c[nH]c4ccccc34)NC(=O)CNC2=O)C(=O)N[C@@H](Cc2ccc(OCCN)cc2)C(=O)N[C@@H](Cc2ccc3ccccc3c2)C(=O)N[C@@](C)(CC(C)C)C(=O)N1 [Compound 90, [Orn](1c)(6c)^†GWQE(6c)[Y(2-aminoethoxy)][2-Nal][2-Me-Leu]E(1c)[Dab][3-(3-Pyridyl)-Ala]-[NHMe]] |
| 320 nM | 99% |  | CCCOc1ccc(C[C@@H]2NC(=O)[C@@H]3CCC(=O)N[C@@H](CCCCNC(=O)CC[C@@H](C(=O)NCCCCc4cccnc4)NC(=O)[C@](C)(CC(C)C)NC(=O)[C@H](Cc4ccc5ccccc5c4)NC2=O)C(=O)N[C@@H]([C@@H](C)CC)C(=O)N[C@@H](C(C)C)C(=O)N[C@@H](Cc2c[nH]c4ccccc24)C(=O)N[C@@H](CCC(N)=O)C(=O)N3)cc1 [Compound 32, K(1c)(6c)^†IVWQE(6c)[Y(nPr)][2-Nal][2-Me-Leu]E(1c)-[NH-4-(pyridin-3-yl)butanyl]] |
| 9.9 nM | 97% |  | CC(C)[C@@H]1NC(=O)[C@H]([C@@H](C)O)NC(=O)[C@@H]2CCCCNC(=O)CC[C@@H]3NC(=O)[C@H](CCCCNC(=O)[C@H](Cc4cccnc4)NC(=O)[C@H](CCN)NC3=O)NC(=O)[C@H](Cc3ccc4ccccc4c3)NC(=O)[C@H](Cc3ccc(OCCN)cc3)NC(=O)[C@H](CCC(=O)N2)NC(=O)[C@H](CCC(N)=O)NC(=O)[C@H](Cc2c[nH]c3ccccc23)NC1=O [Compound 77, K(1c)(6c)^†TVWQE(6c)[Y(2-aminoethoxy)][2-Nal]K(7c)E(1c)[Dab][3-(3-Pyridyl)-Ala](7c)^‡] |
| 730 nM | 99% |  | COc1ccc(C[C@@H]2NC(=O)[C@@H]3CCC(=O)N[C@@H](CCCCNC(=O)CC[C@@H](C(=O)N[C@@H](CCCCNC(=O)c4ccccn4)C(N)=O)NC(=O)[C@](C)(CC(C)C)NC(=O)[C@H](Cc4ccc5ccccc5c4)NC2=O)C(=O)N[C@@H]([C@@H](C)O)C(=O)N[C@@H](C(C)C)C(=O)N[C@@H](Cc2c[nH]c4ccccc24)C(=O)N[C@@H](CCC(N)=O)C(=O)N3)cc1 [Compound 47, K(1c)(6c)^†TVWQE(6c)[Y(Me)][2-Nal][2-Me-Leu]E(1c)[K(piconilate)]-[NH2]] |
| 3.7 nM | 92% |  | CC(C)[C@@H]1NC(=O)[C@H]([C@@H](C)O)NC(=O)[C@@H]2CCCCNC(=O)CC[C@@H]3NC(=O)[C@H](CCNC(=O)[C@H](Cc4cccnc4)NC(=O)[C@H](CCN)NC3=O)NC(=O)[C@H](Cc3ccc4ccccc4c3)NC(=O)[C@H](Cc3ccc(OCCN)cc3)NC(=O)[C@H](CCC(=O)N2)NC(=O)[C@H](CCC(N)=O)NC(=O)[C@H](Cc2c[nH]c3ccccc23)NC1=O [Compound 76, K(1c)(6c)^†TVWQE(6c)[Y(2-aminoethoxy)][2-Nal][Dab](7c)E(1c)[Dab][3-(3-Pyridyl)-Ala](7c)^‡] (KTVWQE[AEF][2Nal][Dab]E[Dab][3Pal]; lactam 1-10, 9-C, N-6) |
| 0.37 nM | 104% |  | CC(C)C[C@]1(C)NC(=O)[C@H](Cc2ccc3ccccc3c2)NC(=O)[C@H](Cc2ccc(OCCN)cc2)NC(=O)[C@@H]2CC(=O)N[C@H](CCNC(=O)CC[C@@H](C(=O)N[C@@H](CCN)C(=O)N[C@@H](Cc3cccnc3)C(N)=O)NC1=O)C(=O)N[C@@H]([C@@H](C)O)C(=O)N[C@@H](C(C)C)C(=O)N[C@@H](Cc1c[nH]c3ccccc13)C(=O)N[C@@H](CCC(N)=O)C(=O)N2 [Compound 11, [{d}Dab](1c)(6c)^†TVWQD(6c)[Y(2-aminoethoxy)][2-Nal][2-Me-Leu]E(1c)[Dab][3-(3-Pyridyl)-Ala]-[NH2]] ([dDab]TVWQD[AEF][2Nal][αMeL]E[Dab][3Pal]-NH2; lactam 1-10, N-6) |
| 150 nM |  | 98% | CC[C@H](C)[C@@H]1NC(=O)[C@@H]2CCCCNC(=O)CC[C@@H](C(=O)N3CCC[C@H]3C(=O)N[C@@H](Cc3cccnc3)C(=O)NC)NC(=O)[C@](C)(CC(C)C)NC(=O)[C@H](Cc3ccc4ccccc4c3)NC(=O)[C@H](Cc3ccc(OCCN)cc3)NC(=O)[C@H](CCC(=O)N2)NC(=O)[C@H](CCC(N)=O)NC(=O)[C@H](Cc2c[nH]c3ccccc23)NC(=O)[C@H](C(C)C)NC1=O [Compound 63, K(1c)(6c)^†IVWQE(6c)[Y(2-aminoethoxy)][2-Nal][2-Me-Leu]E(1c)P[3-(3-Pyridyl)-Ala]-[NHMe]] (KIVWQE[AEF][2Nal][αMeL]EP[3Pal]-NHMe; lactam 1-10, N-6) |
| 11 nM | 99% |  | CC[C@H](C)[C@@H]1NC(=O)[C@@H]2CCCCNC(=O)CC[C@@H](CC(=O)N[C@@H](Cc3cccnc3)C(=O)NC)NC(=O)[C@](C)(CC(C)C)NC(=O)[C@H](Cc3ccc4ccccc4c3)NC(=O)[C@H](Cc3ccc(OCCN)cc3)NC(=O)[C@H](CCC(=O)N2)NC(=O)[C@H](CCC(N)=O)NC(=O)[C@H](Cc2c[nH]c3ccccc23)NC(=O)[C@H](C(C)C)NC1=O [Compound 61, K(1c)(6c)^†IVWQE(6c)[Y(2-aminoethoxy)][2-Nal][2-Me-Leu][beta-hGlu](cyclo1)[3-(3-Pyridyl)-Ala]-[NHMe]] (KIVWQE[AEF][2Nal][αMeL][β3hE][3Pal]-NHMe; lactam 1-10, N-6) |
